Experimental data taken from PubChem BioAssay (NCI).
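Cells were grown in 96-well plates and exposed to each compound for 48 hours at five concentrations; endpoints were interpolated linearly between bracketing concentrations, or set to the highest concentration if not reached. GI50: concentration for 50% inhibition of growth. At the TGI there is no net growth.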

Legend:
Experiment in all cases: NCI tumour cell line growth inhibition, 48 h
SNB-75 CNS = test system: SNB-75 CNS
SK-OV-3 ovarian = test system: SK-OV-3 ovarian
HCC-2998 colon = test system: HCC-2998 colon
HCT-116 colon = test system: HCT-116 colon
NCI-H226 lung = test system: NCI-H226 lung
COLO 205 colon = test system: COLO 205 colon
786-0 renal = test system: 786-0 renal
SF-539 CNS = test system: SF-539 CNS
ACHN renal = test system: ACHN renal
SR leukemia = test system: SR leukemia

| Compound | TGI (SNB-75 CNS) [µM] | TGI (SK-OV-3 ovarian) [µM] | TGI (HCC-2998 colon) [µM] | TGI (HCT-116 colon) [µM] | TGI (NCI-H226 lung) [µM] | TGI (COLO 205 colon) [µM] | TGI (786-0 renal) [µM] | TGI (SF-539 CNS) [µM] | TGI (ACHN renal) [µM] | GI50 (SNB-75 CNS) [µM] | GI50 (SK-OV-3 ovarian) [µM] | GI50 (HCC-2998 colon) [µM] | GI50 (HCT-116 colon) [µM] | GI50 (NCI-H226 lung) [µM] | GI50 (COLO 205 colon) [µM] | GI50 (786-0 renal) [µM] | GI50 (SF-539 CNS) [µM] | GI50 (ACHN renal) [µM] | GI50 (SR leukemia) [µM] | TGI (SR leukemia) [µM] |
| --- | --- | --- | --- | --- | --- | --- | --- | --- | --- | --- | --- | --- | --- | --- | --- | --- | --- | --- | --- | --- |
| COc1ccc(C=O)c(N(C)C(=O)C(C)(C)C)c1 | > 100 | > 100 | > 100 | > 100 | > 100 | > 100 | > 100 | > 100 | > 100 |  |  |  |  |  |  |  |  |  |  |  |
| c1ccc(CNc2nc(Nc3ccc(-c4nc5ccccc5[nH]4)cc3)c3cn[nH]c3n2)cc1 | 47.1 | 17.8 | 3.78 | 3.64 | 8.43 | 3.72 | 3.73 | 5.19 | 6.5 | 5.12 | 3.97 | 1.91 | 1.74 | 2.98 | 1.78 | 1.77 | 2 | 2.29 |  |  |
| OCCC#Cc1ccccc1C#Cc1ccccc1 | 53.4 | 39.4 | 45 | 33.6 | 33.2 | 38 | 31.3 | 27 | 36.4 | 19.8 | 17.3 | 19.1 | 17.5 | 15.2 | 19.4 | 16.1 | 12.7 | 17.2 |  |  |
| CCCCCNC(=O)C1C(=O)N(CCCCC)C(=O)/C1=N\N (stereo not given) |  |  | > 100 |  |  | > 100 | > 100 | > 100 | > 100 |  |  |  |  |  |  |  |  |  |  |  |
| O=C1/C(=C/c2ccccc2Cl)COc2ccccc21 | 32.1 | 72.5 | 35.9 | 17 |  | 40.1 | 28.5 | 31 | 34.6 |  |  |  |  |  |  |  |  |  |  |  |
| CC[C@]12C=CCN3CC[C@]4(C(=C(C(=O)OC)C1)Nc1ccccc14)[C@@H]32 | 7.93 |  | 24.9 | 10.9 |  | 20 | 15.6 | 10.1 | 4.54 | 2.15 |  | 11.4 | 3.16 |  | 5.62 | 3.66 | 3.09 | 2.07 | 2.55 | 30.7 |
| COc1ccc(Br)c(CCCCC(=O)O)c1 | > 100 | > 100 | > 100 | > 100 |  | > 100 | > 100 | > 100 | > 100 |  |  |  |  |  |  |  |  |  |  |  |
| CNS(=O)(=O)NN(C)S(=O)(=O)c1ccc(C)cc1 |  | > 100 | > 100 | > 100 |  | > 100 | > 100 | > 100 | > 100 |  |  |  |  |  |  |  |  |  |  | > 100 |
| CCN=C(N)CSS(=O)(=O)O | > 100 | > 100 |  | > 100 | > 100 | > 100 | > 100 | > 100 | > 100 |  |  |  |  |  |  |  |  |  |  | > 100 |
| COc1cc2c(c(Br)c1N)-c1cc(Br)c(N)cc1C2=O | > 100 | > 73.5 | > 100 | > 100 |  | > 100 | > 100 | > 100 | > 100 | 1.96 | 11.3 | 4.97 | 3.49 |  | > 87 | > 100 | 4.93 | > 100 | 0.0592 | > 100 |
| O=S(=O)(Nc1ccc2ccc3cccc4ccc1c2c34)c1ccccc1 | > 100 | > 100 |  | > 100 | > 100 | > 100 | > 100 | > 100 | > 100 |  |  |  |  |  |  |  |  |  |  | > 100 |
| C/C=C(\C)C(=O)O[C@@H]1C=CC(=O)O[C@H]1COC(=O)[C@H](C)O | 32 | 88.6 | 28.7 | 12.2 | 44.7 | 23.7 | 21.2 | 59.4 | 19 | 10.8 | 25.2 | 14.8 | 3.39 | 14.7 | 6.57 | 9.2 | 16.5 | 6.16 |  |  |
| CCOc1ccc(NC(=O)/C(=C/c2ccccc2)C(C)=O)cc1 | 17.9 | 40.7 | 27.1 | 17.5 | 32.4 | 33.1 | 24.8 | 23.3 | 35.3 |  |  |  |  |  |  |  |  |  |  |  |
| COc1ccc(C(=O)Nc2ccccc2)cc1[N+](=O)[O-] | > 100 | > 100 |  |  | > 100 | > 100 | > 100 | > 100 |  |  |  |  |  |  |  |  |  |  |  |  |
| COc1ccccc1NS(=O)(=O)c1cc(C(C)(C)C)ccc1OCCOc1ccc(C(C)(C)C)cc1S(=O)(=O)Nc1ccccc1OC | > 100 | > 100 | > 100 | > 100 | > 100 | > 100 | > 100 | > 100 | > 100 |  |  |  |  |  |  |  |  |  |  |  |
| CCOC(=O)C1=C(O)CSC1=Nc1ccc(N=C2SCC(O)=C2C(=O)OCC)cc1 | 61.4 | 65.3 |  | 35.2 | 44 | 32.5 | 31.4 | 43 | 67.4 |  |  |  |  |  |  |  |  |  |  |  |
| O=C(Nc1ccc(Cl)cc1)C(=O)C1=C(O)c2ccccc2OC1 | > 100 | > 100 | > 100 | > 100 | > 100 | > 100 | > 100 | > 100 | > 100 |  |  |  |  |  |  |  |  |  |  |  |
| Cc1nc(N=C(N)N)nc2ccc3ccccc3c12 | 1.97 | 6.85 |  | 4.82 | 3.58 | 3.13 | 3.01 | 2.98 | 5.15 | 0.524 | 1.92 |  | 1.12 | 1.29 | 1.13 | 1.11 | 1.39 | 1.79 | 0.423 | 2.26 |
| COc1ccc(C(=O)Nc2ccccc2C#N)cc1 | > 100 |  |  | > 100 |  | > 100 | > 100 | > 100 | > 100 |  |  |  |  |  |  |  |  |  |  | > 100 |
